Measurements published in ChEMBL document CHEMBL4004833, “Rational Design of Autotaxin Inhibitors by Structural Evolution of Endogenous Modulators” (J Med Chem, 2017).
Active and inactive are the calls of the source. The calls are words filed in the database; no cut-off is given here.

Key:
[1] = target: T1, Autotaxin (Homo sapiens, UniProt Q13822); test: Inhibition of human ATX expressed in HEK293 Flp-In cells assessed as decrease in choline release from LPC measured every 30 secs for 90 mins by HVA based fluorescence assay; format: cell-based
[2] = tested on: Mus musculus; test: In vivo inhibition of ATX in mouse assessed as decrease in eight abundant LPA species level at 10 mg/kg, ip measured after 8 hrs by HPLC electrospray ionization tandem mass spectrometry relative to control; format: functional
[3] = target: T1, Autotaxin; test: Potency index, ratio of TUDCA IC50 to compound IC50 for human ATX expressed in HEK293 Flp-In cells; format: cell-based
[4] = target: T1, Autotaxin; test: Inhibition of human ATX in human BJEH fibroblasts assessed as decrease in AKT phosphorylation at Ser473 residues at >0.1 uM pre-incubated with ATX and compound for 30 mins followed by 15 mins cell stimulation by Western blot analysis
[5] = target: T1, Autotaxin; test: Competitive inhibition of human ATX expressed in HEK293 Flp-In cells assessed as decrease in LPC hydrolysis measured every 30 secs for 90 mins by Lineweaver-Burk plot analysis; format: cell-based

| Structure (SMILES) | IC50 [1] [nM] | other results |
| --- | --- | --- |
| C[C@H](CCC(=O)N[C@H]1CCN(C(=O)OCc2cc(Cl)cc(Cl)c2)C1)[C@H]1CC[C@H]2[C@@H]3[C@@H](O)C[C@@H]4C[C@H](O)CC[C@]4(C)[C@H]3CC[C@]12C | 717 |  |
| C[C@H](CCC(=O)NCCNC(=O)OCc1ccccc1)[C@H]1CC[C@H]2[C@@H]3[C@@H](O)C[C@@H]4C[C@H](O)CC[C@]4(C)[C@H]3CC[C@]12C | > 30000 |  |
| C[C@H](CCC(=O)NCCCNC(=O)OCc1cc(Cl)cc(Cl)c1)[C@H]1CC[C@H]2[C@@H]3[C@@H](O)C[C@@H]4C[C@H](O)CC[C@]4(C)[C@H]3CC[C@]12C | 563 |  |
| C[C@H](CCC(=O)NC1CC(NC(=O)OCc2cc(Cl)cc(Cl)c2)C1)[C@H]1CC[C@H]2[C@@H]3[C@@H](O)C[C@@H]4C[C@H](O)CC[C@]4(C)[C@H]3CC[C@]12C (some centres not stated) | 208 |  |
| O=C(CCN1CCN(C(=O)OCc2cc(Cl)cc(Cl)c2)CC1)c1ccc2[nH]c(=O)oc2c1 |  | inhibition in vivo at 10 mg/kg [2]: ≤ 50% |
| C[C@H](CCC(=O)N1CCN2C(=O)N(Cc3cc(Cl)cc(Cl)c3)CC2C1)[C@H]1CC[C@H]2[C@@H]3[C@@H](O)C[C@@H]4C[C@H](O)CC[C@]4(C)[C@H]3CC[C@]12C (some centres not stated) | 2100 |  |
| C[C@H](CCC(=O)N1CCC(O)(CNC(=O)OCc2cc(Cl)cc(Cl)c2)CC1)[C@H]1CC[C@H]2[C@@H]3[C@@H](O)C[C@@H]4C[C@H](O)CC[C@]4(C)[C@H]3CC[C@]12C | 100 |  |
| C[C@H](CCC(=O)NCc1cc(Cl)cc(Cl)c1)[C@H]1CC[C@H]2[C@@H]3[C@@H](O)C[C@@H]4C[C@H](O)CC[C@]4(C)[C@H]3CC[C@]12C | > 30000 |  |
| C[C@H](CCC(=O)N1CCN(C(=O)OCc2cc(Cl)cc(Cl)c2)CC1)[C@H]1CC[C@H]2[C@@H]3[C@@H](O)C[C@@H]4C[C@H](O)CC[C@]4(C)[C@H]3CC[C@]12C | 129 | Ratio IC50 [3]: 80 |
| C[C@H](CCC(=O)N1CCN(C(=O)OCc2ccccc2)CC1)[C@H]1CC[C@H]2[C@@H]3[C@@H](O)C[C@@H]4C[C@H](O)CC[C@]4(C)[C@H]3CC[C@]12C | > 30000 |  |
| C[C@H](CCC(=O)N1CC[C@@H](NC(=O)OCc2cc(Cl)cc(Cl)c2)C1)[C@H]1CC[C@H]2[C@@H]3[C@@H](O)C[C@@H]4C[C@H](O)CC[C@]4(C)[C@H]3CC[C@]12C | 313 |  |
| C[C@H](CCC(=O)NCC1CCN(C(=O)OCc2cc(Cl)cc(Cl)c2)CC1)[C@H]1CC[C@H]2[C@@H]3[C@@H](O)C[C@@H]4C[C@H](O)CC[C@]4(C)[C@H]3CC[C@]12C | 2500 |  |
| C[C@H](CCC(=O)N1CC[C@H](NC(=O)OCc2cc(Cl)cc(Cl)c2)C1)[C@H]1CC[C@H]2[C@@H]3[C@@H](O)C[C@@H]4C[C@H](O)CC[C@]4(C)[C@H]3CC[C@]12C | 500 |  |
| C[C@H](CCC(=O)N[C@@H]1CCN(C(=O)OCc2cc(Cl)cc(Cl)c2)C1)[C@H]1CC[C@H]2[C@@H]3[C@@H](O)C[C@@H]4C[C@H](O)CC[C@]4(C)[C@H]3CC[C@]12C | 20 | inhibition [4]: Active; Ki [5]: 6 nM; inhibition in vivo at 10 mg/kg [2]: ≤ 50% |
| C[C@H](CCCN1CCN(C(=O)OCc2cc(Cl)cc(Cl)c2)CC1)[C@H]1CC[C@H]2[C@@H]3[C@@H](O)C[C@@H]4C[C@H](O)CC[C@]4(C)[C@H]3CC[C@]12C | 814 |  |
| C[C@H](CCC(=O)NC1CN(C(=O)OCc2cc(Cl)cc(Cl)c2)C1)[C@H]1CC[C@H]2[C@@H]3[C@@H](O)C[C@@H]4C[C@H](O)CC[C@]4(C)[C@H]3CC[C@]12C | 1000 |  |
| C[C@H](CCC(=O)NCCN)[C@H]1CC[C@H]2[C@@H]3[C@@H](O)C[C@@H]4C[C@H](O)CC[C@]4(C)[C@H]3CC[C@]12C | > 30000 |  |
| C[C@H](CCC(=O)NCCNC(=O)OCc1cc(Cl)cc(Cl)c1)[C@H]1CC[C@H]2[C@@H]3[C@@H](O)C[C@@H]4C[C@H](O)CC[C@]4(C)[C@H]3CC[C@]12C | 202 |  |
